Laboratory results published in patent US20110015119A1, “NOVEL SEMI-SYNTHETIC GLYCOPEPTIDES AS ANTIBACTERIAL AGENTS” (LEAD THERAPEUTICS, INC., priority 2009, published 2011).
Converted amounts (≈) assume the structure as drawn.

Columns and labels:
Format in all cases: cell-based
[1] = tested on: Enterococcus faecium 752 (VRE, Van A); experiment: MIC by broth microdilution, EFcm 752; conditions: Enterococcus faecium, VRE, read-out: MIC E FCM 752, Enterococcus faecium 752 (VRE, Van A); class symbols
Summary of the method: (§1)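 MHB microdilution, CLSI method; clinical isolates, glycopeptide-sensitive or -resistant; robotic serial dilutions.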

[2] = tested on: Streptococcus pyogenes 712; experiment: MIC by broth microdilution, SPY 712; conditions: Streptococcus pyogenes, 712, read-out: MIC S PYO 712
Summary of the method: as §1

[3] = tested on: Staphylococcus aureus 2012 (VISA); experiment: MIC by broth microdilution, SA 2012; conditions: Staphylococcus aureus, VISA, read-out: MIC SA 2012, Staphylococcus aureus 2012 (VISA); class symbols
Summary of the method: as §1

[4] = tested on: Staphylococcus aureus 100 (ATCC 29213); experiment: MIC by broth microdilution, SA 100; conditions: Staphylococcus aureus, ATCC29213, read-out: MIC SA 100
Summary of the method: as §1

[5] = tested on: Staphylococcus aureus 757 (MRSA); experiment: MIC by broth microdilution, SA 757; conditions: Staphylococcus aureus, MRSA, read-out: MIC SA 757
Summary of the method: as §1

[6] = tested on: Staphylococcus epidermidis 835; experiment: MIC by broth microdilution, SE 835; conditions: Staphylococcus epidermidis, 835, read-out: MIC SE 835
Summary of the method: as §1

[7] = tested on: Enterococcus faecium 800; experiment: MIC by broth microdilution, EFcm 800; conditions: Enterococcus faecium, 800, read-out: MIC E FCM 800
Summary of the method: as §1

[8] = tested on: Enterococcus faecalis 101 (ATCC 29212); experiment: MIC by broth microdilution, EFc 101; conditions: Enterococcus faecalis, ATCC29212, read-out: MIC E FC 101, Enterococcus faecalis 101 (ATCC 29212); class symbols
Summary of the method: as §1

[9] = tested on: Enterococcus faecalis 848 (VRE, Van A); experiment: MIC by broth microdilution, EFc 848; conditions: Enterococcus faecalis, VRE, read-out: MIC E FC 848, Enterococcus faecalis 848 (VRE, Van A); class symbols
Summary of the method: as §1

[10] = tested on: Streptococcus pneumoniae 1195 (ATCC 49619); experiment: MIC by broth microdilution, SPNE 1195; conditions: Streptococcus pneumoniae, ATCC49619, read-out: MIC S PNE 1195
Summary of the method: as §1

[11] = tested on: Staphylococcus epidermidis 831 (MRSE); experiment: MIC by broth microdilution, SE 831; conditions: Staphylococcus epidermidis, MRSE, read-out: MIC SE 831
Summary of the method: as §1

Compound | MIC [1] [µg/mL] | MIC [2] [µg/mL] | MIC [3] [µg/mL] | MIC [4] [µg/mL] | MIC [5] [µg/mL] | MIC [6] [µg/mL] | MIC [7] [µg/mL] | MIC [8] [µg/mL] | MIC [9] [µg/mL] | MIC [10] [µg/mL] | MIC [11] [µg/mL]
CNCCCOc1ccc(NC(=O)Oc2cc(O)c3c(c2)[C@@H](C(=O)NC2C4CC5CC(C4)CC2C5)NC(=O)[C@H]2NC(=O)[C@H](NC(=O)[C@@H]4NC(=O)[C@H](CC(N)=O)NC(=O)[C@H](NC(=O)[C@@H](CC(C)C)NC)[C@H](O)c5ccc(c(Cl)c5)Oc5cc4cc(c5O[C@@H]4O[C@H](CO)[C@@H](O)[C@H](O)[C@H]4O[C@H]4C[C@](C)(N)[C@H](O)[C@H](C)O4)Oc4ccc(cc4Cl)[C@H]2O)c2ccc(O)c-3c2)cc1 (stereo partly drawn) [Compound 333] | > 16 | 1 to 2 (≈ 0.559 to 1.12 µM) | > 16 | 4 to 8 (≈ 2.24 to 4.47 µM) | 4 to 8 (≈ 2.24 to 4.47 µM) | 8 to 16 (≈ 4.47 to 8.94 µM) | 2 to 4 (≈ 1.12 to 2.24 µM) | 4 to 8 (≈ 2.24 to 4.47 µM) | > 16 | 2 to 4 (≈ 1.12 to 2.24 µM) | 8 to 16 (≈ 4.47 to 8.94 µM)
CCCCCOc1ccc(S(=O)(=O)NCCCCNC(=O)Oc2cc(O)c3c(c2)[C@@H](C(=O)NC2C4CC5CC(C4)CC2C5)NC(=O)[C@H]2NC(=O)[C@H](NC(=O)[C@@H]4NC(=O)[C@H](CC(N)=O)NC(=O)[C@H](NC(=O)[C@@H](CC(C)C)NC)[C@H](O)c5ccc(c(Cl)c5)Oc5cc4cc(c5O[C@@H]4O[C@H](CO)[C@@H](O)[C@H](O)[C@H]4O[C@H]4C[C@](C)(N)[C@H](O)[C@H](C)O4)Oc4ccc(cc4Cl)[C@H]2O)c2ccc(O)c-3c2)cc1 (stereo partly drawn) [Compound 334] | 0.5 to 1 (≈ 0.26 to 0.52 µM) | 0.01 to 0.5 (≈ 0.0052 to 0.26 µM) | 1 to 2 (≈ 0.52 to 1.04 µM) | 0.01 to 0.5 (≈ 0.0052 to 0.26 µM) | 0.01 to 0.5 (≈ 0.0052 to 0.26 µM) | 0.01 to 0.5 (≈ 0.0052 to 0.26 µM) | 0.01 to 0.5 (≈ 0.0052 to 0.26 µM) | 0.01 to 0.5 (≈ 0.0052 to 0.26 µM) | 8 to 16 (≈ 4.16 to 8.32 µM) | 0.01 to 0.5 (≈ 0.0052 to 0.26 µM) | 0.01 to 0.5 (≈ 0.0052 to 0.26 µM)
CNCCOc1ccc(CCNC(=O)Oc2cc(O)c3c(c2)[C@@H](C(=O)NC2C4CC5CC(C4)CC2C5)NC(=O)[C@H]2NC(=O)[C@H](NC(=O)[C@@H]4NC(=O)[C@H](CC(N)=O)NC(=O)[C@H](NC(=O)[C@@H](CC(C)C)NC)[C@H](O)c5ccc(c(Cl)c5)Oc5cc4cc(c5O[C@@H]4O[C@H](CO)[C@@H](O)[C@H](O)[C@H]4O[C@H]4C[C@](C)(N)[C@H](O)[C@H](C)O4)Oc4ccc(cc4Cl)[C@H]2O)c2ccc(O)c-3c2)cc1 (stereo partly drawn) [Compound 335] | 2 to 4 (≈ 1.11 to 2.22 µM) | 0.01 to 0.5 (≈ 0.00555 to 0.277 µM) | 1 to 2 (≈ 0.555 to 1.11 µM) | 0.01 to 0.5 (≈ 0.00555 to 0.277 µM) | 0.01 to 0.5 (≈ 0.00555 to 0.277 µM) | 0.01 to 0.5 (≈ 0.00555 to 0.277 µM) | 0.01 to 0.5 (≈ 0.00555 to 0.277 µM) | 0.01 to 0.5 (≈ 0.00555 to 0.277 µM) | > 16 | 0.01 to 0.5 (≈ 0.00555 to 0.277 µM) | 0.01 to 0.5 (≈ 0.00555 to 0.277 µM)
CNCCCCCNC(=O)Oc1cc(O)c2c(c1)[C@@H](C(=O)NC1C3CC4CC(C3)CC1C4)NC(=O)[C@H]1NC(=O)[C@H](NC(=O)[C@@H]3NC(=O)[C@H](CC(N)=O)NC(=O)[C@H](NC(=O)[C@@H](CC(C)C)NC)[C@H](O)c4ccc(c(Cl)c4)Oc4cc3cc(c4O[C@@H]3O[C@H](CO)[C@@H](O)[C@H](O)[C@H]3O[C@H]3C[C@](C)(N)[C@H](O)[C@H](C)O3)Oc3ccc(cc3Cl)[C@H]1O)c1ccc(O)c-2c1 (stereo partly drawn) [Compound 336] | > 16 | 0.01 to 0.5 (≈ 0.0058 to 0.29 µM) | 1 to 2 (≈ 0.58 to 1.16 µM) | 0.01 to 0.5 (≈ 0.0058 to 0.29 µM) | 0.01 to 0.5 (≈ 0.0058 to 0.29 µM) | 0.01 to 0.5 (≈ 0.0058 to 0.29 µM) | 0.01 to 0.5 (≈ 0.0058 to 0.29 µM) | 0.01 to 0.5 (≈ 0.0058 to 0.29 µM) | > 16 | 0.01 to 0.5 (≈ 0.0058 to 0.29 µM) | 0.01 to 0.5 (≈ 0.0058 to 0.29 µM)
CCNCCOc1ccc(CCNC(=O)Oc2cc(O)c3c(c2)[C@@H](C(=O)NC2C4CC5CC(C4)CC2C5)NC(=O)[C@H]2NC(=O)[C@H](NC(=O)[C@@H]4NC(=O)[C@H](CC(N)=O)NC(=O)[C@H](NC(=O)[C@@H](CC(C)C)NC)[C@H](O)c5ccc(c(Cl)c5)Oc5cc4cc(c5O[C@@H]4O[C@H](CO)[C@@H](O)[C@H](O)[C@H]4O[C@H]4C[C@](C)(N)[C@H](O)[C@H](C)O4)Oc4ccc(cc4Cl)[C@H]2O)c2ccc(O)c-3c2)cc1 (stereo partly drawn) [Compound 337] | 4 to 8 (≈ 2.2 to 4.4 µM) | 0.01 to 0.5 (≈ 0.0055 to 0.275 µM) | 1 to 2 (≈ 0.55 to 1.1 µM) | 0.01 to 0.5 (≈ 0.0055 to 0.275 µM) | 0.01 to 0.5 (≈ 0.0055 to 0.275 µM) | 0.01 to 0.5 (≈ 0.0055 to 0.275 µM) | 0.01 to 0.5 (≈ 0.0055 to 0.275 µM) | 0.01 to 0.5 (≈ 0.0055 to 0.275 µM) | 8 to 16 (≈ 4.4 to 8.81 µM) | 0.01 to 0.5 (≈ 0.0055 to 0.275 µM) | 0.01 to 0.5 (≈ 0.0055 to 0.275 µM)
CCCCOc1ccc(CCNC(=O)Oc2cc(O)c3c(c2)[C@@H](C(=O)NC2C4CC5CC(C4)CC2C5)NC(=O)[C@H]2NC(=O)[C@H](NC(=O)[C@@H]4NC(=O)[C@H](CC(N)=O)NC(=O)[C@H](NC(=O)[C@@H](CC(C)C)NC)[C@H](O)c5ccc(c(Cl)c5)Oc5cc4cc(c5O[C@@H]4O[C@H](CO)[C@@H](O)[C@H](O)[C@H]4O[C@H]4C[C@](C)(N)[C@H](O)[C@H](C)O4)Oc4ccc(cc4Cl)[C@H]2O)c2ccc(O)c-3c2)cc1 (stereo partly drawn) [Compound 339] | 0.5 to 1 (≈ 0.278 to 0.555 µM) | 0.01 to 0.5 (≈ 0.00555 to 0.278 µM) | 0.5 to 1 (≈ 0.278 to 0.555 µM) | 0.01 to 0.5 (≈ 0.00555 to 0.278 µM) | 0.01 to 0.5 (≈ 0.00555 to 0.278 µM) | 0.01 to 0.5 (≈ 0.00555 to 0.278 µM) | 0.01 to 0.5 (≈ 0.00555 to 0.278 µM) | 0.01 to 0.5 (≈ 0.00555 to 0.278 µM) | 4 to 8 (≈ 2.22 to 4.44 µM) | 0.01 to 0.5 (≈ 0.00555 to 0.278 µM) | 0.01 to 0.5 (≈ 0.00555 to 0.278 µM)
